Molecular target: α7 nAChR subtype (Rattus norvegicus, UniProt Q05941)
Type: binding

Sequence of α7 nAChR subtype (Q05941 23-502 limits assumed): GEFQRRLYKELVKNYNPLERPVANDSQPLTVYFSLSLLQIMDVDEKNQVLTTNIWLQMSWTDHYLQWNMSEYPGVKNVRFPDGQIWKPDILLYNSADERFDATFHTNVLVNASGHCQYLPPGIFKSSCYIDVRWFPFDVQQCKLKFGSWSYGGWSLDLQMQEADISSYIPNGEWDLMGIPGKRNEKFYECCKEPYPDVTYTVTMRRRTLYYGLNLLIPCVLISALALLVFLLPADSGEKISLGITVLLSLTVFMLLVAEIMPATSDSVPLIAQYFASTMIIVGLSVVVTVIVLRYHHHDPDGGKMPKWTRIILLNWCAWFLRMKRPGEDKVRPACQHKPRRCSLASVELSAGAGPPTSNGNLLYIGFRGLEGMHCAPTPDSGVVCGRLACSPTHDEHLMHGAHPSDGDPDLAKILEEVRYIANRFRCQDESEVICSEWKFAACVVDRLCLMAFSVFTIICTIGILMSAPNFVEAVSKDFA

## ^125I-α—Bungarotoxin [^125I-α-BTX]
  Kd: 1.67 nM
